Test results from patent US7465799B2, “Methods and compositions for selectin inhibition” (Wyeth, priority 2003, dated 2008).

Molecular target: T1, P-selectin binding to P-selectin glycoprotein ligand-1 (PSGL-1) (Homo sapiens, UniProt P16109)
T1 construct: truncated form of human P-selectin comprised of the lectin and EGF domains (P-LE)
T1 sequence (P16109 42-198): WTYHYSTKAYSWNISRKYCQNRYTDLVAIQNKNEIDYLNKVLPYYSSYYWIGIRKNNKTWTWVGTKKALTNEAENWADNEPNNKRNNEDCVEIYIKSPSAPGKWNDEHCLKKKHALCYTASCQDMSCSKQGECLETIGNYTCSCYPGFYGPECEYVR
Test: Biacore assay: inhibition of P-selectin (P-LE) binding to PSGL-1 (SGP-3)
Conditions: at 1 mM
Protocol: Compounds of the invention can be assayed for selectin inhibitory activity using any of the procedures known in the art. One convenient procedure is the determination of IC50 values for inhibition of P-selectin binding to P-selectin glycoprotein ligand-1 (PSGL-1) using Biacore.
The Biacore 3000 is an instrument that uses surface plasmon resonance to detect binding of a solution phase analyte to an immobilized ligand on a sensor chip surface. The analyte sample is injected under flow using a microfluidic system. Binding of analyte to ligand causes a change in the angle of refracted light at the surface of the sensor chip, measured by the Biacore instrument in resonance units (RUs).
SGP-3 is a purified sulfoglycopeptide form of human PSGL-1 that contains the P-selectin binding determinants (See Somers et al., 2000, Cell 103, 467-479). SGP-3 was biotinylated via amine chemistry at a unique C-terminal lysine residue and immobilized on streptavidin-coated SA sensor chip. […]
The Biacore assay measures the signal in RU produced by binding of P-LE to SGP-3 in the presence and absence of inhibitors. Percent inhibition of binding is calculated by dividing the inhibited signal by the uninhibited signal subtracting this value from one then multiplying by one hundred. […] The data from this titration are plotted, RU values vs. concentration, and the IC50 is determined by extrapolation from the plot. […]

CC1(C)[C@@H](O[C@H]2O[C@H](C(=O)O)[C@@H](O)[C@H](O)[C@H]2O[C@@H]2O[C@H](C(=O)O)[C@@H](O)[C@H](O)[C@H]2O)CC[C@]2(C)[C@H]3C(=O)C=C4[C@@H]5C[C@@](C)(C(=O)O)CC[C@]5(C)CC[C@@]4(C)[C@]3(C)CC[C@@H]12 [Glycerrhizzin]
Percent inhibition of binding (positive control): 50%
